Assay results: patent publication US12102637B2, “Pharmaceutical formulations for treating endometriosis, uterine fibroids, polycystic ovary syndrome or adenomyosis” (AbbVie Inc., priority 2017, dated 2024)
Entries after “also recorded” stand apart in the source; their conditions may differ. Marks after values point to notes of the source that are not given here.

What was measured:
[1] = system: women treated in Studies EM-I and EM-II; assay: Adverse reactions in Studies EM-I and EM-II; format: in vivo, human; conditions: for Percentage of Patients with Amenorrhoea / Percentage of Patients with Anxiety / Percentage of Patients with Arthralgia / Percentage of Patients with Headache / Percentage of Patients with Hot Flush / Percentage of Patients with Insomnia / Percentage of Patients with Nasopharyngitis / Percentage of Patients with Nausea / Percentage of Patients with Sinusitis / Percentage of Patients with Upper Respiratory Tract Infection: Studies EM-I and EM-II; for discontinuations due to hot flush / discontinuations due to nausea / patients who discontinued therapy due to adverse reactions: EM-I and EM-II
Text: The population age range was 18-49 years old. Women who completed six months of treatment and met eligibility criteria continued treatment in two blinded six-month extension studies, for a total treatment duration of up to 12 months.

monkeys = assay: Repeat-dose study in monkeys (reproductive organs); format: in vivo, monkey; conditions: monkeys, 75, 150, 300 and 600 mg/kg/day, all doses
Text: Based on pharmacologic actions of elagolix in humans a reversible effect on fertility may be expected in women.

QTc interval = assay: Thorough QT study; format: in vivo, human; conditions: up to 1200 mg; 17- to 23-fold therapeutic concentrations; active control moxifloxacin 400 mg
Experimental: The effect of elagolix (up to 1200 mg) on QTc interval was evaluated in an active-controlled (moxifloxacin 400 mg) thorough QT study.

[2] = system: bone mineral density (BMD); assay: Bone mineral density by DXA (lumbar spine, Z-score) in placebo-controlled and extension studies; format: in vivo, human; conditions: for patients with Z-score below the normal lower bound of −2.0: following 12 months of treatment
Experimental: In the placebo-controlled and extension clinical studies, BMD was measured by DXA. Changes observed in BMD at other anatomical sites (femoral neck, total hip) were generally smaller than lumbar spine.

[3] = system: CYP3A, CYP2D6, CYP2C8, uridine glucuronosyltransferases (UGTs); assay: Metabolism pathways of elagolix; format: in vitro ADME, human
[4] = Pharmacokinetic properties of elagolix in healthy subjects; conditions: human, in vivo
[5] = system: cytochrome P450 (CYP) 3A enzyme; assay: Elagolix as inducer and substrate of CYP3A
Text: Co-administration with elagolix may decrease plasma concentration of drugs that are substrates of CYP3A.
Elagolix is a substrate of CYP3A, P-gp, and organic anion transporting polypeptide (OATP)1B1. Clinically meaningful interactions are not expected when elagolix is co-administered with drugs that inhibit CYP3A or P-gp.

[6] = system: women with moderate to severe endometriosis-related pain; assay: PROMIS Fatigue SF-6a T-score in Phase III endometriosis study; format: in vivo, human
Experimental: A Phase III study was conducted to assess the effects of elagolix for clinically meaningful reductions in pain and other symptoms. Data provided examined the impact of elagolix on fatigue in women with moderate to severe endometriosis-related pain. […] Fatigue was assessed using the Patient Reported Outcome Measurement Information System (PROMIS®), Fatigue Short Form (SF) 6a. Six items assessed a range of self-reported symptoms from mild, subjective feelings of tiredness to overwhelming, sustained sense of exhaustion that likely decreases one's ability to execute daily activities and function normally. The domain was divided into the experience of fatigue (frequency, duration and intensity) and impact of fatigue on physical, mental and social activities. All items assessed fatigue over the previous seven days. Responses to each question was filed on a 5-item Likert scale: 1—“Not at all”; 2—“A little bit”; 3—“Somewhat”; 4—“Quite a bit”; and 5—“Very much.” The questionnaire was administered at baseline and months 1, 3, and 6. Lower scores indicated less fatigue. Post-hoc, Fatigue SF-6a raw scores were converted to T-scores. The T-score rescales […] the raw score into a standardized score such that the general population has a mean of 50 and a standard deviation (SD) of 10. Analysis: […] ANCOVA controlled for treatment as main effect. Baseline Fatigue SF-6a T-score included as a covariate.

[7] = system: premenopausal women with endometriosis with associated pain; assay: Study EM-I: responders on Daily Endometriosis Pain Impact Scale; format: in vivo, human; conditions: 150 mg QD
Text: Each placebo-controlled study assessed the reduction in endometriosis-associated pain over 6 months of treatment. More than 75 percent of women who completed Study EM-I and EM-II enrolled in the extension studies for an additional 6 months treatment period. Subjects were followed for up to 12 months post-treatment. See FIGS. 11-14 The co-primary efficacy endpoints were the proportion of responders for dysmenorrhea and pelvic pain not related to menses (also known as non-menstrual pelvic pain [NMPP]) at Month 3 compared to placebo. The primary analysis independently evaluated these endpoints using a daily diary that asked patients to assess their pain and its impact on their daily activities, over the previous 24 hours. […] Women were defined as responders if they experienced clinically meaningful reduction in dysmenorrhea and/or NMPP with no increased analgesic use for endometriosis associated pain. Dyspareunia was evaluated as a secondary endpoint using the Daily Endometriosis Pain Impact Scale.

[8] = Elagolix 150 mg QD, On Treatment Month 6
[9] = Elagolix 150 mg QD, On Treatment Month 12
[10] = Elagolix 200 mg BID, On Treatment Month 6
[11] = Elagolix 200 mg BID, On Treatment Month 12

For `COc1cccc(-c2c(C)n(Cc3c(F)cccc3C(F)(F)F)c(=O)n(C[C@H](NCCCC(=O)O)c3ccccc3)c2=O)c1F` [Compound A, 4-((R)-2-[5-(2-fluoro-3-methoxy-phenyl)-3-(2-fluoro-6-trifluoromethyl-benzyl)-4-methyl-2,6-dioxo-3,6-dihydro-2H-pyrimidin-1-yl]-1-phenyl-ethylamino)-butyric acid], the “Percentage of Patients with Amenorrhoea” value ([1]; 150 mg QD, N = 475) was 4%, the “Percentage of Patients with Anxiety” value ([1]; 150 mg QD, N = 475) was 3% and the “Percentage of Patients with Arthralgia” value ([1]; 150 mg QD, N = 475) was 3%. For the same compound, the “Percentage of Patients with Headache” value ([1]; 150 mg QD, N = 475) was 17%, the “Percentage of Patients with Hot Flush” value ([1]; 150 mg QD, N = 475) was 23% and the “Percentage of Patients with Insomnia” value ([1]; 150 mg QD, N = 475) was 6%. The “Percentage of Patients with Nasopharyngitis” value ([1]; 150 mg QD, N = 475) was 6%, the “Percentage of Patients with Nausea” value ([1]; 150 mg QD, N = 475) was 11% and the “Percentage of Patients with Sinusitis” value ([1]; 150 mg QD, N = 475) was 5%. The “Percentage of Patients with Upper Respiratory Tract Infection” value ([1]; 150 mg QD, N = 475) was 6%, the “Percentage of Patients with Amenorrhoea” value ([1]; 200 mg BID, N = 477) was 7% and the “Percentage of Patients with Anxiety” value ([1]; 200 mg BID, N = 477) was 5%. The “Percentage of Patients with Arthralgia” value ([1]; 200 mg BID, N = 477) was 5%, the “Percentage of Patients with Headache” value ([1]; 200 mg BID, N = 477) was 20% and the “Percentage of Patients with Hot Flush” value ([1]; 200 mg BID, N = 477) was 45%. For the same compound, the “Percentage of Patients with Insomnia” value ([1]; 200 mg BID, N = 477) was 9%, the “Percentage of Patients with Nasopharyngitis” value ([1]; 200 mg BID, N = 477) was 6% and the “Percentage of Patients with Nausea” value ([1]; 200 mg BID, N = 477) was 16%. The “Percentage of Patients with Sinusitis” value ([1]; 200 mg BID, N = 477) was 6%, the “Percentage of Patients with Upper Respiratory Tract Infection” value ([1]; 200 mg BID, N = 477) was 4% and the “discontinuations due to hot flush” value ([1]; 150 mg QD) was 0.8%. For the same compound, the “discontinuations due to nausea” value ([1]; 150 mg QD) was 0.8%, the “patients who discontinued therapy due to adverse reactions” value ([1]; 150 mg QD) was 5.5% and the “discontinuations due to hot flush” value ([1]; 200 mg BID) was 2.5%. The “discontinuations due to nausea” value ([1]; 200 mg BID) was 1.5%, the “patients who discontinued therapy due to adverse reactions” value ([1]; 200 mg BID) was 9.6% and the “Events of hot flushes” value ([1]; majority assessed as mild to moderate) was “dose-dependent”. For the same compound, the “reproductive organ findings in repeat-dose study” value (monkeys) was “reversible atrophy of reproductive organs (cervix, uterus and vagina)”, the “Effect on QTc interval” value (QTc interval) was “does not prolong the QTc interval” and the “% Subjects Z-score ≤ −1.5 of Lumbar Spine” value [2, 8] was 0.8%. For the same compound, the “Mean Percent Change From Baseline in Bone Mineral Density of Lumbar Spine” value (from here on “Mean Percent Change From Baseline”) [2, 8] was −0.52%, the “% Subjects Z-score ≤ −1.5 of Lumbar Spine” value [2, 9] was 1.3% and the “Mean Percent Change From Baseline” value [2, 9] was −0.87%. The “% Subjects Z-score ≤ −1.5 of Lumbar Spine” value [2, 10] was 4.1%, the “Mean Percent Change From Baseline” value [2, 10] was −2.54% and the “% Subjects Z-score ≤ −1.5 of Lumbar Spine” value [2, 11] was 5.1%. For the same compound, the “Mean Percent Change From Baseline” value [2, 11] was −3.76%, the “BMD after stopping treatment” value ([2]; both elagolix treatment groups, lumbar spine, total hip and femoral neck, post-treatment months 6 and 12) was “progressive recovery of BMD” and the “patients with Z-score below the normal lower bound of −2.0” value ([2]; 150 mg daily dose) was “no patient”. For the same compound, the “patients with Z-score below the normal lower bound of −2.0” value ([2]; 200 mg BID dose) was “less than 1%”, the “Metabolism (major pathway)” value [3] was “CYP3A (major)” and the “Metabolism, minor pathways” value ([3]; listed as Elagolix) was “Minor pathways include: CYP2D6,; also recorded: CYP2C8, and uridine; also recorded: glucuronosyltransferases (UGTs)”. The “Major route of elimination” value [4] was “Hepatic metabolism”, the “induction of cytochrome P450 (CYP) 3A enzyme” value [5] was “weak to moderate inducer” and the “substrate of CYP3A” value [5] was “substrate”. For the same compound, the “PROMIS Fatigue SF-6a T-Score” value ([6]; 200 mg, Month 1, vs placebo) was “statistically significant reduction in fatigue”, the “PROMIS Fatigue SF-6a T-Score” value ([6]; both doses (150 mg QD, 200 mg BID), Months 3 and 6, vs placebo) was “Statistically significant reductions relative to placebo” and the “Proportion of Responders, Dysmenorrhea (Month 3)” value [7] was 45.4*** %.
